According to US9409905B2, “Antibacterial compounds and methods for use” (PTC THERAPEUTICS, INC., priority 2011, dated 2016):
Converted amounts (≈) assume the structure as drawn.

Experiments:
[1] = tested on: Staphylococcus aureus (S. aureus) 29213; experiment: Antibacterial activity, microbroth dilution MIC (Table 1); assay type: cell-based; settings: microbroth dilution, Gram-positive S. aureus 29213, read-out: MIC, 29213
In short: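 Broth microdilution; endpoint = no macroscopic growth; value = lowest inhibiting concn, μg/mL.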

[2] = tested on: Escherichia coli (E. coli) BAS849; experiment: as above; assay type: cell-based; settings: microbroth dilution, super sensitive Gram-negative E. coli BAS849, read-out: MIC, BAS849
In short: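 Potency is reported as minimum inhibitory concentration in μg/mL, determined by broth microdilution as the lowest level of compound that stops growth visible to the eye.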

[3] = tested on: Acinetobacter baumannii (A. baumannii) BAA747; experiment: Antibacterial activity, MIC (Table 4); assay type: cell-based; settings: A. baumannii BAA747, read-out: MIC, BAA747
In short: (§1)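 MIC in μg/mL by microbroth dilution, scored as the lowest level that suppresses visible growth.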

[4] = tested on: Klebsiella pneumoniae (K. pneumoniae) 35657; experiment: Antibacterial activity, MIC (Table 4); assay type: cell-based; settings: K. pneumoniae 35657, read-out: MIC, 35657
In short: as §1

E. coli ELZ4000 = experiment: Antibacterial activity, MIC, multi-drug resistant clinical isolate (Table 3); assay type: cell-based; settings: Escherichia coli, ELZ4000, read-out: MIC ELZ4000
In short: (§2)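 Microbroth dilution. Endpoint: absence of macroscopically visible growth. Value = MIC, μg/mL.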

E. coli ELZ4251 = experiment: as above; assay type: cell-based; settings: Escherichia coli
In short: as §2

A. baumannii MXX2240 = experiment: Antibacterial activity, MIC, resistant strain (Table 4); assay type: cell-based; settings: Acinetobacter baumannii, MXX2240; resistant A. baumannii MMX2240, multi-drug resistant clinical isolate; read-out: MIC, MMX2240
In short: as §1

K. pneumoniae MXX1232 = experiment: as above; assay type: cell-based; settings: Klebsiella pneumoniae, MXX1232; resistant K. pneumoniae MMX1232, multi-drug resistant clinical isolate; read-out: MIC, MMX1232
In short: as §1

E. coli 25922 = experiment: Antibacterial activity, microbroth dilution MIC (Table 1); assay type: cell-based, Escherichia coli; settings: Escherichia coli; microbroth dilution; control Gram-negative E. coli 25922 strain; read-out: MIC, 25922
In short: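 MIC (μg/mL) read as lowest concentration with no macroscopically visible growth; microbroth dilution format. E. coli 25922 served as control Gram-negative strain.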

[5] = tested on: Pseudomonas aeruginosa (P. aeruginosa) 27853; experiment: Antibacterial activity, MIC (Table 5); assay type: cell-based; settings: P. aeruginosa 27853, read-out: MIC, 27853
In short: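 Compounds are serially diluted in broth and inoculated with the organism. Growth is then inspected macroscopically, and the lowest concentration showing none is taken as the MIC (μg/mL).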

E. coli LZ3111 = experiment: Antibacterial activity, MIC, quinolone resistant strain (Table 2); assay type: cell-based; settings: Escherichia coli, LZ3111, read-out: MIC LZ3111
In short: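 Strain carries mutations conferring high-level quinolone resistance; tested by microbroth dilution, MIC recorded in μg/mL as lowest concentration preventing visible growth.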

| SMILES | MIC [1] [µg/mL] | MIC [2] [µg/mL] | MIC [3] [µg/mL] | MIC [4] [µg/mL] | MIC (E. coli ELZ4000) [µg/mL] | MIC (E. coli ELZ4251) [µg/mL] | MIC (A. baumannii MXX2240) [µg/mL] | MIC (K. pneumoniae MXX1232) [µg/mL] | MIC (E. coli 25922) [µg/mL] | MIC [5] [µg/mL] | MIC (E. coli LZ3111) [µg/mL] |
| --- | --- | --- | --- | --- | --- | --- | --- | --- | --- | --- | --- |
| CCc1cc(C(=O)O)c(=O)[nH]c1-c1ccc2c(c1)cc(CN1CCC[C@@H]1CO)n2C [Cpd 132, (R)-5-ethyl-6-(2-((2-(hydroxymethyl)pyrrolidin-1-yl)methyl)-1-methyl-1H-indol-5-yl)-2-oxo-1,2-dihydropyridine-3-carboxylic acid] | 12.5 to 150 (≈ 30.5 to 366 µM) | < 1 | 3.5 to 12.5 (≈ 8.55 to 30.5 µM) | < 1 | 12.5 to 150 (≈ 30.5 to 366 µM) | 12.5 to 150 (≈ 30.5 to 366 µM) | 12.5 to 150 (≈ 30.5 to 366 µM) | 12.5 to 150 (≈ 30.5 to 366 µM) | < 1 | 12.5 to 150 (≈ 30.5 to 366 µM) | 12.5 to 150 (≈ 30.5 to 366 µM) |
| Cc1c(-c2ccc3c(c2)cc(CN2CCCC2)n3C)[nH]c(=O)c(C(=O)O)c1O [Cpd 313, 4-hydroxy-5-methyl-6-(1-methyl-2-(pyrrolidin-1-ylmethyl)-1H-indol-5-yl)-2-oxo-1,2-dihydropyridine-3-carboxylic acid] | 12.5 to 150 (≈ 32.8 to 393 µM) | < 1 | 3.5 to 12.5 (≈ 9.18 to 32.8 µM) |  | 3.5 to 12.5 (≈ 9.18 to 32.8 µM) | 1 to 3.5 (≈ 2.62 to 9.18 µM) | 1 to 3.5 (≈ 2.62 to 9.18 µM) | 12.5 to 150 (≈ 32.8 to 393 µM) | 3.5 to 12.5 (≈ 9.18 to 32.8 µM) | 12.5 to 150 (≈ 32.8 to 393 µM) | 1 to 3.5 (≈ 2.62 to 9.18 µM) |
| CCc1cc(C(=O)O)c(=O)[nH]c1-c1ccc2c(c1)cc(CN1CCCCC1)n2C [Cpd 133, 5-ethyl-6-(1-methyl-2-(piperidin-1-ylmethyl)-1H-indol-5-yl)-2-oxo-1,2-dihydropyridine-3-carboxylic acid] | 12.5 to 150 (≈ 31.8 to 381 µM) | < 1 | 1 to 3.5 (≈ 2.54 to 8.89 µM) | < 1 | 12.5 to 150 (≈ 31.8 to 381 µM) | 12.5 to 150 (≈ 31.8 to 381 µM) | 12.5 to 150 (≈ 31.8 to 381 µM) | 12.5 to 150 (≈ 31.8 to 381 µM) | < 1 | 12.5 to 150 (≈ 31.8 to 381 µM) | 12.5 to 150 (≈ 31.8 to 381 µM) |
| CCc1c(-c2ccc3c(c2)cc(CNC(CF)CF)n3C)[nH]c(=O)c(C(=O)O)c1O [Cpd 274, 6-(2-((1,3-difluoropropan-2-ylamino)methyl)-1-methyl-1H-indol-5-yl)-5-ethyl-4-hydroxy-2-oxo-1,2-dihydropyridine-3-carboxylic acid] | 3.5 to 12.5 (≈ 8.34 to 29.8 µM) | < 1 | 3.5 to 12.5 (≈ 8.34 to 29.8 µM) |  | 12.5 to 150 (≈ 29.8 to 358 µM) | 3.5 to 12.5 (≈ 8.34 to 29.8 µM) | 3.5 to 12.5 (≈ 8.34 to 29.8 µM) | 12.5 to 150 (≈ 29.8 to 358 µM) | 1 to 3.5 (≈ 2.38 to 8.34 µM) | 12.5 to 150 (≈ 29.8 to 358 µM) | 3.5 to 12.5 (≈ 8.34 to 29.8 µM) |
| CCc1cc(C(=O)O)c(=O)[nH]c1-c1ccc2c(c1)cc(CCN1CCCC1)n2C [Cpd 159, 5-ethyl-6-(1-methyl-2-(2-(pyrrolidin-1-yl)ethyl)-1H-indol-5-yl)-2-oxo-1,2-dihydropyridine-3-carboxylic acid] | 12.5 to 150 (≈ 31.8 to 381 µM) | < 1 | 3.5 to 12.5 (≈ 8.89 to 31.8 µM) | < 1 | 12.5 to 150 (≈ 31.8 to 381 µM) | 12.5 to 150 (≈ 31.8 to 381 µM) | 12.5 to 150 (≈ 31.8 to 381 µM) | 12.5 to 150 (≈ 31.8 to 381 µM) | < 1 | 3.5 to 12.5 (≈ 8.89 to 31.8 µM) | 12.5 to 150 (≈ 31.8 to 381 µM) |
| CCc1c(-c2ccc3ccn(C)c3c2)[nH]c(=O)c(C(=O)O)c1O [Cpd 8, 5-ethyl-4-hydroxy-6-(1-methyl-1H-indol-6-yl)-2-oxo-1,2-dihydropyridine-3-carboxylic acid] | 3.5 to 12.5 (≈ 11.2 to 40 µM) | 1 to 3.5 (≈ 3.2 to 11.2 µM) | 12.5 to 150 (≈ 40 to 480 µM) | 12.5 to 150 (≈ 40 to 480 µM) | 12.5 to 150 (≈ 40 to 480 µM) | 12.5 to 150 (≈ 40 to 480 µM) | 12.5 to 150 (≈ 40 to 480 µM) | 12.5 to 150 (≈ 40 to 480 µM) | 12.5 to 150 (≈ 40 to 480 µM) | 12.5 to 150 (≈ 40 to 480 µM) | 3.5 to 12.5 (≈ 11.2 to 40 µM) |
| CCc1c(-c2ccc3c(c2)cc2n3CCC2N2CCCC2)[nH]c(=O)c(C(=O)O)c1O (stereo not drawn) [Cpd 304, 5-ethyl-4-hydroxy-2-oxo-6-(1-(pyrrolidin-1-yl)-2,3-dihydro-1H-pyrrolo[1,2-a]indol-7-yl)-1,2-dihydropyridine-3-carboxylic acid] | 12.5 to 150 (≈ 30.7 to 368 µM) | < 1 | 1 to 3.5 (≈ 2.45 to 8.59 µM) | 3.5 to 12.5 (≈ 8.59 to 30.7 µM) | 12.5 to 150 (≈ 30.7 to 368 µM) | 12.5 to 150 (≈ 30.7 to 368 µM) | 12.5 to 150 (≈ 30.7 to 368 µM) | 12.5 to 150 (≈ 30.7 to 368 µM) | < 1 | 12.5 to 150 (≈ 30.7 to 368 µM) | 3.5 to 12.5 (≈ 8.59 to 30.7 µM) |
